Data set [1] deals with T1, 11β-HSD1 (Homo sapiens, UniProt P28845).
T1 construct: expressed in transfected cells; host or cells: HEK 293 (stably transfected, HEK 293/HSD11B1)
Briefly: 11β-HSD1 HEK assay (cell based assay, SPA). To be noted: HEK293; at 1 μM; whole HEK 293 cells stably transfected with the HSD11B1 gene, 3H-cortisone substrate; read-out: Activity (inhibition of 11β-HSD1). As for the experimental part:
11β-HSD1 HEK Assay Protocol (Cell Based Assay)
11β-HSD1 activity is measured in whole HEK 293 cells stably transfected with the HSD11B1 gene. Cells are incubated in 96-well microplates in the presence of tritiated substrate. Enzyme activity is determined by measuring the amount of tritated product by scintillation proximity assay (SPA). Assay plates contain internal high and low controls to allow calculation of percentage inhibition.
1. […] 2. When the cells are 80% confluent the medium is removed from each well. 100 μl fresh, serum-free, medium containing ^3H-cortisone and test compound in 1% DMSO is added to each well*. Control wells are also dispensed. […] 3. The plate is incubated at 37° C. for the required time period. 4. 50 μl of media is removed from each well and transferred to a microplate containing 100 μl of a pre-incubated mixture of anti-cortisol antibody and SPA bead. The mixture is incubated with gentle shaking until equilibrium is reached, before transferring to a scintillation counter to establish the enzyme activity in each sample.
10 μl of compound is dispensed into each well of a 96-well microplate in 10% DMSO at 100 μM concentration. 90 μl media containing ^3H-cortisone is added to each well. The compound/media/substrate mixture is then transferred to the assay plate containing the cells. […]

Results on 23 molecules are retold here after US20110112151A1, “COMPOUND CAPABLE OF INHIBITING 11-BETA HYDROXYSTERIOD DEHYDROGENASE” (priority 2008, published 2011).

SMILES strings stand for the structures.

T1 sequence (P28845 whole entry): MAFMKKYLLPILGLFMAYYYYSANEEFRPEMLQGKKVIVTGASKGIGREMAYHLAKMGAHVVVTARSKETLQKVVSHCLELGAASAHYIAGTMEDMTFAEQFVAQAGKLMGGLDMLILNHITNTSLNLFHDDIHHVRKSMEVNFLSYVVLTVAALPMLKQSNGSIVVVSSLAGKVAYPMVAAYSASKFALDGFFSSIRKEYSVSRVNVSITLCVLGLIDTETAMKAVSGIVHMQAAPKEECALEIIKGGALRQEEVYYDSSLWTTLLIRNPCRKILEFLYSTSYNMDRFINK

Regarding `CNC(=O)c1ccc(SCC(=O)C23CC4CC(CC(C4)C2)C3)nc1` [Example 36, 6-(2-Adamantan-1-yl-2-oxo-ethylsulfanyl)-N-methyl-nicotinamide], the melting point (as a rule, the temperature of the solid-liquid transition) lay in the range of 184 to 185.5 °C. In addition, the inhibition (commonly the drop in the measured response relative to a control, in per cent) at 1 µM in data set [1] was above 60%.

`O=C(C[S+]([O-])Cc1cccnc1)C12CC3CC(CC(C3)C1)C2` (stereo not shown) [Example 8, 1-Adamantan-1-yl-2-(pyridin-3-ylmethanesulfinyl)-ethanone]: the melting point was in the range of 116 to 119 °C. Also, in data set [1], the inhibition at 1 µM is above 60%.

`Cn1c(SCC(=O)C23CC4CC(CC(C4)C2)C3)nc2ccccc21` [Example 14, 1-Adamantan-1-yl-2-(1-methyl-1H-benzoimidazol-2-ylsulfanyl)-ethanone] yielded a melting point of 146 to 147.5 °C. For the same molecule, the inhibition at 1 µM in data set [1] is below 20%.

For the molecule `CSc1nnc(SCC(=O)C23CC4CC(CC(C4)C2)C3)s1` [Example 106, 1-(Adamantan-1-yl)-2-{[5-(methylsulfanyl)-1,3,4-thiadiazol-2-yl]sulfanyl}ethan-1-one], the melting point is 133.5 to 135 °C. In data set [1], the inhibition at 1 µM is above 60%.

In the case of `O=C(CSCc1ccccn1)C12CC3CC(CC(C3)C1)C2` [Example 11, 1-Adamantan-1-yl-2-(pyridin-2-ylmethylsulfanyl)-ethanone], the melting point was in the range of 38 to 39 °C. In addition, in data set [1], the inhibition at 1 µM is above 60%.

The molecule `Cc1nnc(SCC(=O)C23CC4CC(CC(C4)C2)C3)n1C` [Example 87, 1-(Adamantan-1-yl)-2-[(4,5-dimethyl-1,2,4-triazol-3-yl)sulfanyl]ethanone] yielded a melting point of 113 to 114 °C. Moreover, the inhibition at 1 µM in data set [1] is above 60%.

The molecule `CC(=O)Nc1nnc(SCC(=O)C23CC4CC(CC(C4)C2)C3)s1` [Example 91, N-(5-{[2-(Adamantan-1-yl)-2-oxoethyl]sulfanyl}-1,3,4-thiadiazol-2-yl)acetamide] showed a melting point of 208 to 210 °C. Also, in data set [1], the inhibition at 1 µM was above 60%.

Molecule `Nc1nnc(SCC(=O)C23CC4CC(CC(C4)C2)C3)s1` [Example 88, 1-(Adamantan-1-yl)-2-[(5-amino-1,3,4-thiadiazol-2-yl)sulfanyl]ethanone] had a melting point of 198 to 199 °C. Besides, in data set [1], the inhibition at 1 µM was above 60%.

In turn, `O=C(/C=C/c1cccnc1)C12CC3CC(CC(C3)C1)C2` [Example 38, 1-Adamantan-1-yl-3-pyridin-3-yl-propenone] returned a melting point of 107 to 108.5 °C. For the same molecule, the inhibition at 1 µM in data set [1] was above 60%.

`Cc1nnc(SCC(=O)C23CC4CC(CC(C4)C2)C3)n1Cc1ccc(Cl)cc1` [Example 105, 1-(Adamantan-1-yl)-2-({4-[(4-chlorophenyl)methyl]-5-methyl-4H-1,2,4-triazol-3-yl}sulfanyl)ethan-1-one] showed a melting point of 158 to 159 °C. Also, the inhibition at 1 µM in data set [1] fell in the range of 20 to 60%.

Molecule `O=C(C[S+]([O-])Cc1ccccn1)C12CC3CC(CC(C3)C1)C2` (stereo not shown) [Example 17, 1-Adamantan-1-yl-2-(pyridin-2-ylmethanesulfinyl)-ethanone] displayed a melting point of 87 to 88.5 °C. Further, the inhibition at 1 µM in data set [1] is above 60%.

The molecule `O=C(Nc1nnc(SCC(=O)C23CC4CC(CC(C4)C2)C3)s1)C1CC1` [Example 95, N-(5-{[2-(Adamantan-1-yl)-2-oxoethyl]sulfanyl}-1,3,4-thiadiazol-2-yl)cyclopropanecarboxamide] had a melting point of 218 to 219 °C. Besides, the inhibition at 1 µM in data set [1] was in the range of 20 to 60%.

As to `O=C(CS(=O)(=O)Cc1cccc[n+]1[O-])C12CC3CC(CC(C3)C1)C2` [Example 76, 1-Adamantan-1-yl-2-(1-oxy-pyridin-2-ylmethanesulfonyl)-ethanone], the melting point fell in the range of 225 to 227.5 °C. In addition, the inhibition at 1 µM in data set [1] was above 60%.

In turn, `Cn1c(SCC(=O)C23CC4CC(CC(C4)C2)C3)nnc1-c1cccs1` [Example 102, 1-(Adamantan-1-yl)-2-{[4-methyl-5-(thiophen-2-yl)-4H-1,2,4-triazol-3-yl]sulfanyl}ethan-1-one] showed a melting point of 156 to 157 °C. For the same molecule, the inhibition at 1 µM in data set [1] was above 60%.

As to `CN(C)c1nnc(SCC(=O)C23CC4CC(CC(C4)C2)C3)s1` [Example 104, 1-(Adamantan-1-yl)-2-{[5-(dimethylamino)-1,3,4-thiadiazol-2-yl]sulfanyl}ethan-1-one], the melting point lay in the range of 150 to 151 °C. Moreover, the inhibition at 1 µM in data set [1] is above 60%.

`O=C(CSc1ccc(C(F)(F)F)cn1)C12CC3CC(CC(C3)C1)C2` [Example 66, 1-Adamantan-1-yl-2-(5-trifluoromethyl-pyridin-2-ylsulfanyl)-ethanone] displayed a melting point of 141 to 142 °C. Besides, the inhibition at 1 µM in data set [1] is above 60%.

`Cn1cnnc1S(=O)(=O)CC(=O)C12CC3CC(CC(C3)C1)C2` [Example 77, 1-Adamantan-1-yl-2-(4-methyl-4H-[1,2,4]triazole-3-sulfonyl)-ethanone] came in with a melting point of 149 to 150 °C. The inhibition at 1 µM in data set [1] was above 60%.

`CC(=O)Nc1nnc([S+]([O-])CC(=O)C23CC4CC(CC(C4)C2)C3)s1` (stereo not shown) [Example 94, N-(5-{[2-(Adamantan-1-yl)-2-oxoethane]sulfinyl}-1,3,4-thiadiazol-2-yl)acetamide] showed a melting point of 216 to 218 °C. Besides, in data set [1], the inhibition at 1 µM is above 60%.

`Cn1c(SCC(=O)C23CC4CC(CC(C4)C2)C3)nnc1C1CC1` [Example 101, 1-(Adamantan-1-yl)-2-[(5-cyclopropyl-4-methyl-4H-1,2,4-triazol-3-yl)sulfanyl]ethan-1-one] gave a melting point of 96 to 97.5 °C. In addition, the inhibition at 1 µM in data set [1] is above 60%.

`Cc1nnc(SCC(=O)C23CC4CC(CC(C4)C2)C3)n1C(C)C` [Example 103, 1-(Adamantan-1-yl)-2-{[5-methyl-4-(propan-2-yl)-4H-1,2,4-triazol-3-yl]sulfanyl}ethan-1-one] showed a melting point of 119 to 120.5 °C. Further, in data set [1], the inhibition at 1 µM was above 60%.

On to `Cn1nnnc1SCC(=O)C12CC3CC(CC(C3)C1)C2` [Example 92, 1-(Adamantan-1-yl)-2-[(1-methyl-1,2,3,4-tetrazol-5-yl)sulfanyl]ethanone], for which the melting point lay in the range of 112 to 113 °C. The inhibition at 1 µM in data set [1] is above 60%.

Molecule `O=C(CSc1n[nH]c(-c2ccco2)n1)C12CC3CC(CC(C3)C1)C2` [Example 90, 1-(Adamantan-1-yl)-2-{[5-(furan-2-yl)-1H-1,2,4-triazol-3-yl]sulfanyl}ethanone] registered a melting point of 177 to 178 °C. Besides, the inhibition at 1 µM in data set [1] is below 20%.

In turn, `O=C(CS(=O)(=O)Cc1ccc(Cl)nc1)C12CC3CC(CC(C3)C1)C2` [Example 64, 1-Adamantan-1-yl-2-(6-chloro-pyridin-3-ylmethanesulfonyl)-ethanone] had a melting point of 159 to 161 °C. Moreover, in data set [1], the inhibition at 1 µM is above 60%.
